# Results: patent US10919764B2, “Multi-chamber hypochlorous acid dispenser” (WIAB WATER […], priority 2016, dated 2021)
# Tested on: spores
# Details: acid used for protonization of HOCl
# Text: In addition to buffering the product during storage and after application, acetic acid also has the advantage of improving the sporicidal effect by 40% compared to other acids used for protonization of HOCl.
compound,measurement,value
CC(=O)O [acetic acid],improvement of the sporicidal effect compared to other acids used for protonization of HOCl,40%
